These results are taken from patent US8921364B2, “Modulators of calcium release-activated calcium channel” (Rhizen Pharmaceuticals SA, priority 2009, dated 2014).

Test [1] deals with male Balb/c mice. Put plainly: Foot paw delayed type hypersensitivity in male Balb/c mice. The settings on record: 10 mg/kg, daily treatment day 0 to day 10. The class given is in vivo. As for the experimental part:
DTH swelling responses can be used to follow the activity of immunosuppressive molecules and/or suppressor T cells in vivo. Intradermal antigen (methylated BSA) injections were given to mice (at base of tail) on day 0 and day 7. Compounds were administered once daily from day 0 to day 10 Methylated BSA was injected into the right hind footpad of animals on day 10. Weight difference induced by antigen was determined by weighing the right and left hind paws 24 h after injection of methylated BSA (day 11).

Test [2] relates to female Balb/C mice. Put plainly: TNCB induced contact hypersensitivity in female Balb/c mice. The class given is in vivo. As to conditions: 10 mg/kg b. wt, oral, 24 h after TNCB challenge. As for the experimental part:
Contact hypersensitivity is a simple in vivo assay of cell-mediated immune function. In this procedure, exposure of epidermal cells to exogenous haptens results in a delayed type hypersensitive reaction that can be measured and quantified. Briefly, 7% TNCB solution was applied to the abdominal region of 8 week old Balb/c mice. Ear thickness was measured 7 days after TNCB sensitization. Compounds were administered orally followed by an application of 1% TNCB to inside and outside of ear pinnae. Ear thickness was measured 24 h after TNCB challenge

Test [3] deals with guinea pigs. Put plainly: OVA-induced asthma in guinea pigs. Type of test: in vivo. As to conditions: 10 mg/kg b. wt, oral, 1 h before OVA challenge. As for the experimental part: Pulmonary eosinophilia and airway remodelling in conjunction with altered neural control of airway tone and airway epithelial desquamation contributes to Airway Hyper-responsiveness (AHR) in asthma. For determination of eosinophil reduction, animals were sensitized with OVA on d0, d7, and d14 followed by another round (0.1% w/v) through inhalation on d19 & d20. Compounds were administered orally 1 h before OVA challenge (0.3%). BAL fluid was collected on d22 for differential count and cytokine estimation. For determination of change in respiratory parameters, animals were subjected to whole body plethysmography immediately after ova challenge.

In test [4] the test system is female Balb/C mice. In words: Concanavalin (Con) A induced hepatitis in female Balb/C mice. The class given is in vivo. The settings on record: 10 mg/kg b. wt, oral, 1 hour prior to Con A, blood after 24 hours. As for the experimental part: Con A is often used to prepare experimental animals with high levels of cytotoxic T-lymphocytes, because these cells are involved in the development of viral infections in humans. In this model, animals were administered test compounds orally 1 hour prior to intravenous administration of Con A. Blood samples were collected after 24 hours for determination of Serum glutamic oxaloacetic transaminase (SGOT) and Serum glutamic pyruvic transaminase (SGPT) in Serum.

The subject of test [5] is male DBA/1 Ola HSD mice. Put plainly: Collagen-induced arthritis in male DBA/1 Ola HSD mice. The settings on record: 10 mg/kg b. wt, daily, po, qd. Type of test: in vivo. As for the experimental part:
Collagen induced arthritis in rodent models have been widely used to illustrate and understand the development of the disease besides serving as a surrogate for validation of therapeutic targets for human rheumatoid arthritis. Mice were anesthetized with Isoflurane and given 150 μl of Bovine Type II collagen in Freund's complete adjuvant injections (day 0 and day 21). Treatment was initiated on study day 0 and continued once daily, every day (po, qd). Starting on day 18, clinical scores were given daily for each of the paws (right front, left front, right rear, left rear) and continued till the day of sacrifice (day 34). Daily administration of the test compound (Example 69) at 10 mg/kg b. wt alleviated arthritic symptoms, disease progression, and incidence by 30% compared to the control animals.

Test [6] has as its target CRAC channels (Homo sapiens (Human), UniProt Q96D31). Put plainly: In-vitro CRAC channel inhibition assay in Jurkat cells (thapsigargin-induced calcium influx). As to conditions: Jurkat cells, thapsigargin-induced calcium influx. The class given is cell-based. As for the experimental part: Inhibition of CRAC channels was determined following thapsigargin (Sigma, Cat # T9033) induced endoplasmic calcium release in Jurkat cells. […] Cells were centrifuged and re-suspended in equal volumes ° f Ca^2+ and Mg^2+ free Hanks buffer and Fluo-8 NW dye (ABD Bioquest, Inc., Sunnyvale, Calif.) loading solution at 2×10^5 cells/100 μl/well in 96-well black plate. Plate is incubated at 37° C., 5% CO2 for 30 min followed by further 15 min incubation at room temperature. Test compounds (DMSO stocks diluted in Ca^2+ and Mg^2+ free Hanks buffer) at desired concentrations were added to the wells and incubated for […] Thapsigargin (1 μM final concentration) was added to the wells and incubated for 15 min to inhibit the Sarco-endoplasmic reticulum Ca^2+ ATPase pump thereby depleting endoplasmic calcium and raising cytosolic calcium concentrations. Store-operated calcium entry was initiated by adding extracellular Ca^2+ to a final concentration of 1.8 mM. Fluorescence was monitored over […] on a plate reader (BMG Labtech., Germany) with excitation at 485 nm and an emission wavelength at 520 nm. Data were analyzed using GraphPad Prism. IC50 for each compound was determined based on the percent inhibition of thapsigargin-induced calcium influx into cells.

The target in test [7] is CRAC channels over the voltage operated channels (VOC) (Homo sapiens (Human), UniProt Q96D31). As to conditions: Yonetoky et al.; cited from earlier work.

Structures can show the parent of a compound that is named as a salt.

Chain of CRAC channels (Q96D31 whole entry): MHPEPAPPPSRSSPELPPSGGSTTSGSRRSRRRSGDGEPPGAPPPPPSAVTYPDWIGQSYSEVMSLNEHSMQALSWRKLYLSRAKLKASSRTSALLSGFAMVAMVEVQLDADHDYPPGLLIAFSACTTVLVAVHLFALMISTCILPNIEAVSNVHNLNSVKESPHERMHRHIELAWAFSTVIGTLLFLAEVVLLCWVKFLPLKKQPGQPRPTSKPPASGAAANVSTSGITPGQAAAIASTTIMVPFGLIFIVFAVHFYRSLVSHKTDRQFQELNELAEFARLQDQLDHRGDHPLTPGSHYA
Chain of CRAC channels over the voltage operated channels (VOC) (Q96D31 whole entry): as above

As to `Cc1ncc(C(=O)Nc2ccc(-n3nc(C(F)(F)F)cc3C3CC3)cc2)c(C)n1` [Example 69, N-{4-[5-cyclopropyl-3-(trifluoromethyl)-1H-pyrazol-1-yl]phenyl}-2,4-dimethylpyrimidine-5-carboxamide], the “reduction in antigen-induced paw inflammation” value in test [1] is given as greater than 40%. The “reduction in ear inflammation” value in test [2] is given as greater than 70%. Further, the “reduction in blood eosinophils” value in test [3] was greater than 70%. Also, the “respiration (whole body plethysmography)” value in test [3] (plethysmography immediately after ova challenge) was “improvement in respiration”. For the same compound, the “reduction in serum SGOT & SGPT” value in test [4] was greater than 85%. Further, the “alleviation of arthritic symptoms, disease progression, and incidence compared to control animals” value in test [5] was found to be 30%. For `Cc1oncc1C(=O)Nc1ccc(-n2nc(C(F)(F)F)cc2C2CC2)c(F)c1` [Example 84, N-{4-[5-cyclopropyl-3-(trifluoromethyl)-1H-pyrazol-1-yl]-3-fluorophenyl}-5-methylisoxazole-4-carboxamide], the IC50 – broadly, the concentration that inhibits the measured activity by half – in test [6] worked out at 0.0208 µM. Consider `O=C(Nc1ccc(-n2nc(C(F)(F)F)cc2C2CC2)c(F)c1)c1cccc(F)c1F` [Example 87, N-{4-[5-cyclopropyl-3-(trifluoromethyl)-1H-pyrazol-1-yl]-3-fluorophenyl}-2,3-difluorobenzamide], for which the IC50 in test [6] came to 0.0326 µM. For `Cc1ncncc1C(=O)Nc1ccc(-n2nc(C(F)(F)F)cc2C2CC2)c(F)c1` [Example 93, N-{4-[5-cyclopropyl-3-(trifluoromethyl)-1H-pyrazol-1-yl]-3-fluorophenyl}-4-methylpyrimidine-5-carboxamide], the IC50 in test [6] was found to be 0.0813 µM. As for `Cc1ncncc1NC(=O)Nc1ccc(-n2nc(C(F)(F)F)cc2C2CC2)c(F)c1` [Example 97, 1-{4-[5-cyclopropyl-3-(trifluoromethyl)-1H-pyrazol-1-yl]-3-fluorophenyl}-3-(4-methylpyrimidin-5-yl)urea], in test [6], the concentration for half-maximal inhibition (IC50) stood at 0.6 µM.

As to `O=C(Nc1c(F)cccc1F)c1ccc(-n2nc(C(F)(F)F)cc2C2CC2)c(F)c1` [Example 100, 4-[5-cyclopropyl-3-(trifluoromethyl)-1H-pyrazol-1-yl]-N-(2,6-difluorophenyl)-3-fluorobenzamide], the IC50 in test [6] was found to be 0.0997 µM. As for `Cc1nnsc1C(=O)Nc1ccc(-n2nc(C(F)(F)F)cc2C2CC2)nc1` [Example 101, N-{6-[5-cyclopropyl-3-(trifluoromethyl)-1H-pyrazol-1-yl]pyridin-3-yl}-4-methyl-1,2,3-thiadiazole-5-carboxamide], the IC50 in test [6] worked out at 0.15 µM. Same read-out and setting: in the case of `Cc1ccccc1C(=O)Nc1ccc(-n2nc(C(F)(F)F)cc2C2CC2)nc1` [Example 104, N-{6-[5-cyclopropyl-3-(trifluoromethyl)-1H-pyrazol-1-yl]pyridin-3-yl}-2-methylbenzamide] it was 0.023 µM.

Turning to `O=C(Nc1ccc(-n2nc(C(F)(F)F)cc2C2CC2)nc1)c1ccccc1F` [Example 106, N-(6-(5-cyclopropyl-3-(trifluoromethyl)-1H-pyrazol-1-yl)pyridin-3-yl)-2-fluorobenzamide], the IC50 in test [6] was found to be 0.06 µM.

As for `O=C(Nc1ccc(-n2nc(C(F)(F)F)cc2C2CC2)nc1)c1cccc(F)c1F` [Example 107, N-{6-[5-cyclopropyl-3-(trifluoromethyl)-1H-pyrazol-1-yl]pyridin-3-yl}-2,3-difluorobenzamide], the IC50 in test [6] stood at 0.0703 µM. The same measure, in the same setting: in the case of `O=C(Nc1ccc(-n2nc(C(F)(F)F)cc2C2CC2)nc1)c1c(F)cccc1F` [Example 108, N-{6-[5-cyclopropyl-3-(trifluoromethyl)-1H-pyrazol-1-yl]pyridin-3-yl}-2,6-difluorobenzamide] it was 0.0506 µM. As to `O=C(Nc1ccc(-n2nc(C(F)(F)F)cc2C2CC2)nc1)c1cccnc1` [Example 111, N-{6-[5-cyclopropyl-3-(trifluoromethyl)-1H-pyrazol-1-yl]pyridin-3-yl}nicotinamide hydrochloride], in test [6], the IC50 was determined as 0.0472 µM. In the case of `Cc1ncccc1C(=O)Nc1ccc(-n2nc(C(F)(F)F)cc2C2CC2)nc1.Cl` [Example 112, N-{6-[5-cyclopropyl-3-(trifluoromethyl)-1H-pyrazol-1-yl]pyridin-3-yl}-2-methyl nicotinamide hydrochloride], in test [6], the “% inhibition (1 uM)” value is given as 36.44%. Take `O=C(Nc1ccc(-n2nc(C(F)(F)F)cc2C2CC2)nc1)c1ccncc1` [Example 113, N-{6-[5-cyclopropyl-3-(trifluoromethyl)-1H-pyrazol-1-yl]pyridin-3-yl}isonicotinamide hydrochloride]: the IC50 in test [6] amounted to 0.0626 µM. In the case of `O=C(Nc1ccc(-n2nc(C(F)(F)F)cc2C2CC2)nc1)c1ccncc1F` [Example 114, N-{6-[5-cyclopropyl-3-(trifluoromethyl)-1H-pyrazol-1-yl]pyridin-3-yl}-3-fluoroisonicotinamide], the IC50 in test [6] worked out at 0.0376 µM. As for `O=C(Nc1c(F)cccc1F)c1ccc(-n2nc(C(F)(F)F)cc2C2CC2)nc1` [Example 122, 6-[5-cyclopropyl-3-(trifluoromethyl)-1H-pyrazol-1-yl]-N-(2,6-difluorophenyl) nicotinamide], the IC50 in test [6] is 0.0721 µM. Turning to `O=C(Nc1cnc(-n2nc(C(F)(F)F)cc2C2CC2)nc1)c1c(F)cccc1F` [Example 124, N-{2-[5-cyclopropyl-3-(trifluoromethyl)-1H-pyrazol-1-yl]pyrimidin-5-yl}-2,6-difluorobenzamide], the IC50 in test [6] was 0.295 µM.

As to `Cc1ncsc1C(=O)Nc1ccc(-n2nc(C(F)(F)F)cc2CF)cc1` [Example 125, N-{4-[5-(fluoromethyl)-3-(trifluoromethyl)-1H-pyrazol-1-yl]phenyl}-4-methylthiazole-5-carboxamide], the IC50 in test [6] amounted to 0.373 µM. Consider `Cc1ncsc1C(=O)Nc1ccc(-n2nc(C(F)(F)F)cc2C(F)F)cc1` [Example 126, N-{4-[5-(difluoromethyl)-3-(trifluoromethyl)-1H-pyrazol-1-yl]phenyl}-4-methyl thiazole-5-carboxamide], for which, in test [6], the IC50 worked out at 0.0526 µM.

As for `Cc1nnsc1C(=O)Nc1ccc(-n2nc(C(F)(F)F)cc2C(F)(F)F)cc1` [YM-58483], the “selective index (CRAC channels over VOC)” value in test [7] is 31. As to “N-{4-[3-cyclopropyl-5-(difluoromethyl)-1H-pyrazol-1-yl]-3-fluorophenyl}-2,6-difluorobenzamide and N-{4-[5-cyclopropyl-3-(difluoromethyl)-1H-pyrazol-1-yl]-3-fluorophenyl}-2,6-difluorobenzamide [Example 135]”, the “% inhibition (1 uM)” value in test [6] is 100%.
